Assays:
Assay type in all cases: biochemical
[1] = target: T1, PI3K δ (Homo sapiens, UniProt O00329); assay: In vitro IC50, PI3K δ (p110δ/p85α inhibition assay); details: in vitro kinase assay; read-out: IC50(nM) PI3K δ
T1 construct: purchased Upstate
Method: (§1) IC50 values are measured using either a standard TLC assay for lipid kinase activity (described below) or a high-throughput membrane capture assay. Kinase reactions are performed by preparing a reaction mixture containing kinase, inhibitor (2% DMSO final concentration), buffer (25 mM HEPES, pH 7.4, 10 mM MgCl2), and freshly sonicated phosphatidylinositol (100 μg/ml). Reactions are initiated by the addition of ATP containing 10 μCi of γ-32P-ATP to a final concentration 10 or 100 μM and allowed to proceed for 5 minutes at room temperature. For TLC analysis, reactions are then terminated by the addition of 105 μl 1N HCl followed by 160 μl CHCl3:MeOH (1:1). The biphasic mixture is vortexed, briefly centrifuged, and the organic phase is transferred to a new tube using a gel loading pipette tip precoated with CHCl3. This extract is spotted on TLC plates and developed for 3-4 hours in a 65:35 solution of n-propanol:1M acetic acid. The TLC plates are then dried, exposed to a phosphorimager screen (Storm, Amersham), and quantitated.
(§2) Other commercial kits or systems for assaying PI3-K activities are available. The commercially available kits or systems can be used to screen for inhibitors and/or agonists of PI3-Ks including but not limited to PI 3-Kinase α, β, δ, and γ. An exemplary system is PI 3-Kinase (human) HTRF™ Assay from Upstate. […] Briefly, the assay is a time resolved FRET assay that indirectly measures PIP3 product formed by the activity of a PI3-K. The kinase reaction is performed in a microtitre plate (e.g., a 384 well microtitre plate). The total reaction volume is approximately 20 ul per well. In the first step, each well receives 2 ul of test compound in 20% dimethylsulphoxide resulting in a 2% DMSO final concentration. Next, approximately 14.5 ul of a kinase/PIP2 mixture (diluted in 1× reaction buffer) is added per well for a final concentration of 0.25-0.3 ug/ml kinase and 10 uM PIP2. The plate is sealed and incubated for 15 minutes at room temperature. To start the reaction, 3.5 ul of ATP (diluted in 1× reaction buffer) is added per well for a final concentration of 10 uM ATP. The plate is sealed and incubated for 1 hour at room temperature. The reaction is stopped by adding 5 ul of Stop Solution per well and then 5 ul of Detection Mix is added per well. The plate is sealed, incubated for 1 hour at room temperature, and then read on an appropriate plate reader. Data is analyzed and IC50s are generated using GraphPad Prism 5.

[2] = target: T2, PI3K γ (Homo sapiens, UniProt P48736); assay: In vitro IC50, PI3K γ (p110γ inhibition assay); details: in vitro kinase assay
T2 construct: purchased Sigma
Method: as §1, with “Class I PI3-Ks can be either purchased (p110α/p85α, p110β/p85α, p110δ/p85α from Upstate, and p110γ from Sigma) or expressed as previously described (Knight et al., 2004). IC50” for “IC50”, “quantitated. For each compound, kinase activity is measured at 10-12 inhibitor concentrations representing two-fold dilutions from the highest concentration tested (typically, 200 μM).” for “quantitated.”
as §2

[3] = target: T3, PI3K α (Homo sapiens, UniProt P42336); assay: In vitro IC50, PI3K α (p110α/p85α inhibition assay); details: in vitro kinase assay; read-out: IC50(nM) PI3K α
T3 construct: purchased Upstate
Method: as §1, §2

T3 sequence (P42336 whole entry): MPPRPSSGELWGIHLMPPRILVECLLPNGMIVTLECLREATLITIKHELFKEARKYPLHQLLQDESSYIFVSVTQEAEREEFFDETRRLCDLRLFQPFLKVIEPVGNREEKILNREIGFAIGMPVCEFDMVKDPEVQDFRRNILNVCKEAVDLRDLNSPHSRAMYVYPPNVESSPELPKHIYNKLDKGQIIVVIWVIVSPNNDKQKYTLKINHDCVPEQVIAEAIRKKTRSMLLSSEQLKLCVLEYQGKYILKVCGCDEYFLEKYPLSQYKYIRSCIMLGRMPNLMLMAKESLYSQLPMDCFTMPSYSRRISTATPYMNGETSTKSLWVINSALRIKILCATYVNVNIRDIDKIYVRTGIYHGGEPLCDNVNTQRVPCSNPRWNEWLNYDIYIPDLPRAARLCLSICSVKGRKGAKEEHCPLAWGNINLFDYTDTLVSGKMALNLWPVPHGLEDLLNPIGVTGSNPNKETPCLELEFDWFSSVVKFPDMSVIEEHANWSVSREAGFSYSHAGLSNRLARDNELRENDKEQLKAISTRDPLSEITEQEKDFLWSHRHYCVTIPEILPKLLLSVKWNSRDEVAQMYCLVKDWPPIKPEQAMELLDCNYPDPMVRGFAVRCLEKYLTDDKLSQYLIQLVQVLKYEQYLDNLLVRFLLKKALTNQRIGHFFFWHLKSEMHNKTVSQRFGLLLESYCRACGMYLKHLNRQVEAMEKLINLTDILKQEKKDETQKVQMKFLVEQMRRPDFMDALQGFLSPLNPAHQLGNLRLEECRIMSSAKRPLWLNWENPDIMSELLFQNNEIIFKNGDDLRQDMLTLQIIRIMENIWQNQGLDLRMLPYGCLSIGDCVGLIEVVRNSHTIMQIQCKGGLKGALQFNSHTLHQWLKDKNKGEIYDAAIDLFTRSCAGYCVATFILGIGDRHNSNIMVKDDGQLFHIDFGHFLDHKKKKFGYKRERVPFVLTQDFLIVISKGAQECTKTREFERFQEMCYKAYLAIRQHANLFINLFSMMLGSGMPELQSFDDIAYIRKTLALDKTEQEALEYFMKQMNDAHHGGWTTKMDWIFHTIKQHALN
T3 sequence (P27986 whole entry partner): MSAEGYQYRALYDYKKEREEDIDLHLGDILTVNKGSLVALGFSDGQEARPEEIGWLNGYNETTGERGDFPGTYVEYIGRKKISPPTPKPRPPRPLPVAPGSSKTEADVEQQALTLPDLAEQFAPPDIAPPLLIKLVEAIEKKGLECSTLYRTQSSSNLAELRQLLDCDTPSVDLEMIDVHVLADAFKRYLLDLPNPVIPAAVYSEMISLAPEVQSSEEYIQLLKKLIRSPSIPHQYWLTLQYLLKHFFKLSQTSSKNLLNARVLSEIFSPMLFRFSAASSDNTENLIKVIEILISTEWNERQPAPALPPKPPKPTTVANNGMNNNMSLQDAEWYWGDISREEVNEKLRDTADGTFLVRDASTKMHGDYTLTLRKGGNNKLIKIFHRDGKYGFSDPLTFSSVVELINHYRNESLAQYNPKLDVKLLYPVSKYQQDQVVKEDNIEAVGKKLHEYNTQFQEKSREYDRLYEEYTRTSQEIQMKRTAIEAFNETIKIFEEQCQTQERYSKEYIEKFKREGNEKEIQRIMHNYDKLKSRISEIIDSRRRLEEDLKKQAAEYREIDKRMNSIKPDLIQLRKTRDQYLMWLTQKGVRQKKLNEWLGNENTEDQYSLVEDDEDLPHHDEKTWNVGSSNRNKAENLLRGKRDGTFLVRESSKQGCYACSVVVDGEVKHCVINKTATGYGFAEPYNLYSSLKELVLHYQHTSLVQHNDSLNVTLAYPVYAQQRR
T1 sequence (O00329 whole entry): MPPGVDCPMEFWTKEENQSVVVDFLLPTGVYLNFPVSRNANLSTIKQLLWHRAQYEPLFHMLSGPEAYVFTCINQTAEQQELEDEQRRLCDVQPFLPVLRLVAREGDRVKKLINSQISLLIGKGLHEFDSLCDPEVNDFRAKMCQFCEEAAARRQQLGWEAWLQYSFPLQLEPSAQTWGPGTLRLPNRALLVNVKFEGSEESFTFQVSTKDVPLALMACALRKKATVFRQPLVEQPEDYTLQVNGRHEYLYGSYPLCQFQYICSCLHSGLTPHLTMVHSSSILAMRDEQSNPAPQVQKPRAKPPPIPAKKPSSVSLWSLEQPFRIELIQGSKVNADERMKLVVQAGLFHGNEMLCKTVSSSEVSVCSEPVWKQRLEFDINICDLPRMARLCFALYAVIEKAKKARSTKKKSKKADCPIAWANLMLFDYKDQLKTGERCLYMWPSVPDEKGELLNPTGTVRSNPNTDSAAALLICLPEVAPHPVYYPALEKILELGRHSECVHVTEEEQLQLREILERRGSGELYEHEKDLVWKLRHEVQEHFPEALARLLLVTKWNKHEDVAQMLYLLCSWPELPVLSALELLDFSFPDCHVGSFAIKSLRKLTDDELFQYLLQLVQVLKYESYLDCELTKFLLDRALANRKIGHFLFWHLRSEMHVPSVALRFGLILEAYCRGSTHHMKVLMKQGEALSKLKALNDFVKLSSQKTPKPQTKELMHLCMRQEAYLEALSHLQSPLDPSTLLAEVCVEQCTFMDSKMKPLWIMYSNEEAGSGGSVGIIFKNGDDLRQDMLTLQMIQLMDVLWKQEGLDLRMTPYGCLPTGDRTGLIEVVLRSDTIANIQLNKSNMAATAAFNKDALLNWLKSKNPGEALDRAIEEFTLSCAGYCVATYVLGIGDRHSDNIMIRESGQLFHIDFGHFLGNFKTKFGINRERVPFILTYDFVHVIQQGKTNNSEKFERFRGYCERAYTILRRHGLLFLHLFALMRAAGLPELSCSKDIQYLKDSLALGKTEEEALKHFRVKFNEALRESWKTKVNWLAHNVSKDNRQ
T1 sequence (P27986 whole entry partner): as the sequence (P27986 whole entry partner) above
T2 sequence (P48736 whole entry): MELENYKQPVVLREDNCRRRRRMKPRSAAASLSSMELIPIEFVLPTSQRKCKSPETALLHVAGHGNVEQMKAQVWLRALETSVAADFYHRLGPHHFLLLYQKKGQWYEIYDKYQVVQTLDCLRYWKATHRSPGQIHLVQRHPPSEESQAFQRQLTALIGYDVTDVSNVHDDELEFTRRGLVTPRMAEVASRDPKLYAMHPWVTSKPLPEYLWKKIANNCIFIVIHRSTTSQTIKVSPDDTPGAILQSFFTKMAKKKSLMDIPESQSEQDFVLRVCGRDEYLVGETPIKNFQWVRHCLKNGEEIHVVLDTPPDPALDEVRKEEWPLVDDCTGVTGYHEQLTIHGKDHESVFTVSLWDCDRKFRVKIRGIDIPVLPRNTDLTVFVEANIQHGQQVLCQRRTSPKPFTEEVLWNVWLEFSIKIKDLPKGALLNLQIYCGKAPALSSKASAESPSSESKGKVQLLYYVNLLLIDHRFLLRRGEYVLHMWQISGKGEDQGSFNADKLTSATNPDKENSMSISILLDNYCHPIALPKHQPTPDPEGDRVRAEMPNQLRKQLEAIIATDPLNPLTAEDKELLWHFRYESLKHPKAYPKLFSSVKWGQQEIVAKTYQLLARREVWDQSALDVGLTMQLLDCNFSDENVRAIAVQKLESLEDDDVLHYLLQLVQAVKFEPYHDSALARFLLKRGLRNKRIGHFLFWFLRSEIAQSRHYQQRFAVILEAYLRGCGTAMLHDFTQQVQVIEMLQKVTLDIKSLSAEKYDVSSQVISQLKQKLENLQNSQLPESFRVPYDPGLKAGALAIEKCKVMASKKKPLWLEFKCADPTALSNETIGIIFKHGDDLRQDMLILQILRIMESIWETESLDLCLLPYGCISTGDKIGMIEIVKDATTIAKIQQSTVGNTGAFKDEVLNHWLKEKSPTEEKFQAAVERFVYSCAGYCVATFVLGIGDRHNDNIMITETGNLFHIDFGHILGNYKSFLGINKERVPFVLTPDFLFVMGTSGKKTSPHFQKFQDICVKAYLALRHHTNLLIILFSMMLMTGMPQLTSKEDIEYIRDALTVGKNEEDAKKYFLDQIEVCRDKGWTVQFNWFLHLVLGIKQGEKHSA

Row | Structure (SMILES) | IC50 [1] [nM] | IC50 [2] [nM] | IC50 [3] [nM]
1 | Cc1cccc2cc(C(C)Nc3ncnc4[nH]cnc34)nc(OC(C)C)c12 (centres unmarked) [Compound 32] | < 10000 |  | 
2 | C[C@H](Nc1ncnc2[nH]cnc12)c1cc2cccc(Cl)c2c(CCN2CCC2)n1 [Compound 88] | < 100 | < 10000 | < 10000
3 | Cc1cccc2cc(C(C)Nc3ncnc4[nH]cnc34)nc(NC3CCN(C)CC3)c12 (centres unmarked) [Compound 41] | < 1000 | > 10000 | 
4 | C[C@H](Nc1ncnc2[nH]cnc12)c1cc2cccc(Cl)c2c(-c2cccnc2)n1 [Compound 82] | < 100 | < 1000 | > 10000
5 | CC(Nc1ncnc2[nH]cnc12)c1cc2cccc(Cl)c2c(CCN2CCN(S(C)(=O)=O)CC2)n1 (centres unmarked) [Compound 80] | < 100 | < 10000 | > 10000
6 | Cc1cccc2cc(C(C)Nc3ncnc4[nH]cnc34)nc(OC3CCNCC3)c12 (centres unmarked) [Compound 14] | < 1000 | > 10000 | > 10000
7 | Cc1cccc2cc(C(C)Nc3ncnc4[nH]cnc34)nc(Oc3ccccc3)c12 (centres unmarked) [Compound 24] | < 1000 |  | 
8 | C[C@H](Nc1ncnc2[nH]cnc12)c1nc(OCCN2CCCC2)c2c(Cl)cccc2n1 [Compound 95] | < 100 | < 10000 | < 10000
9 | Cc1cccc2cc(Cn3nc(-c4cn[nH]c4)c4c(N)ncnc43)nc(OC(C)C)c12 [Compound 30] | < 10000 |  | 
10 | CC(=O)N1CCC(Oc2nc(C(C)Nc3ncnc4[nH]cnc34)cc3cccc(C)c23)CC1 (centres unmarked) [Compound 47] | < 100 | < 1000 | > 10000
11 | Cc1cccc2cc(Cn3nc(-c4cn[nH]c4)c4c(N)ncnc43)nc(N3CCN(C)CC3)c12 [Compound 18] | < 100 |  | < 10000
12 | Cc1cccc2cc(C(C)Nc3ncnc4[nH]cnc34)nc(NC3CCOCC3)c12 (centres unmarked) [Compound 43] | < 10000 | > 10000 | 
13 | C[C@H](Nc1ncnc2[nH]cnc12)c1cc2cccc(Cl)c2c(N(C)C)n1 [Compound 71] | < 100 | < 1000 | < 10000
14 | C[C@H](Nc1ncnc2[nH]cnc12)c1cc2cccc(Cl)c2c(OCC2CCN(S(C)(=O)=O)CC2)n1 [Compound 75] | < 100 | > 10000 | > 10000
15 | C[C@H](Nc1ncnc2[nH]cnc12)c1cc2cccc(Cl)c2c(OCCN2CCN(S(C)(=O)=O)CC2)n1 [Compound 74] | < 100 | < 10000 | > 10000
16 | CC(=O)N1CCC(Nc2nc(C(C)Nc3ncnc4[nH]cnc34)cc3cccc(C)c23)CC1 (centres unmarked) [Compound 49] | < 1000 | < 10000 | > 10000
17 | C[C@H](Nc1ncnc2[nH]cnc12)c1cc2cccc(Cl)c2c(N2CCN(S(C)(=O)=O)CC2)n1 [Compound 64] | < 100 | < 1000 | < 10000
18 | CC(=O)N1CCN(c2nc([C@H](C)Nc3ncnc4[nH]cnc34)cc3cccc(Cl)c23)CC1 [Compound 69] | < 1000 | > 10000 | > 10000
19 | Cc1cccc2cc(C(C)Nc3ncnc4[nH]cnc34)nc(N3CCN(C)CC3)c12 (centres unmarked) [Compound 19] | < 100 | > 10000 | 
20 | C[C@@H](Nc1ncnc2[nH]cnc12)c1cc2cccc(Cl)c2c(N2CCN(S(C)(=O)=O)CC2)n1 [Compound 83] | > 10000 | > 10000 | > 10000
21 | CC(=O)N1CCN(c2nc(Cn3nc(-c4cn[nH]c4)c4c(N)ncnc43)cc3cccc(Cl)c23)CC1 [Compound 70] | < 100 | < 10000 | > 10000

— patent US9315505B2, “Heterocyclic compounds and uses thereof” (INTELLIKINE LLC, priority 2009, dated 2016)
